In publication PMC12199414, “A Self‐Assembling LYTAC Mediates CTGF Degradation and Remodels Inflammatory Tumor Microenvironment for Triple‐Negative Breast Cancer Therapy” (Advanced Science, 2025):
Residues, ends and D or L forms follow the SMILES beside them. No end group written: not given here.

How the values were obtained:
[1] = biological target: T1, rhCTGF‐His tag protein (Homo sapiens, UniProt P29279); assay: MicroScale Thermophoresis (MST) binding to CTGF; conditions: Monolith NT.115, protein labelled with Monolith RED-NHS, 2 × 10^−6 M protein, PBST buffer (PBS, 0.05% Tween-20)
T1 construct: purchased Novoprotein C15W
T1 sequence (P29279 27-349): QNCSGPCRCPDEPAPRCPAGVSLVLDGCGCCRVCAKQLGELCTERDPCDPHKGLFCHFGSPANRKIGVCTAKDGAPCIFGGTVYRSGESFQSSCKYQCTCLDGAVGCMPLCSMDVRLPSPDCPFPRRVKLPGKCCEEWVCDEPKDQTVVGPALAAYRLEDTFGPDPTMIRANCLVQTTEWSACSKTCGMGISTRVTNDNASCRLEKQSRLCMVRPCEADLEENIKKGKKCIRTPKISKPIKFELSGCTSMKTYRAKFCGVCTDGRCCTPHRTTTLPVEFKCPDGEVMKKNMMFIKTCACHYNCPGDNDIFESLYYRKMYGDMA
Protocol: (§1) The affinity between various peptides (CL8, CC14, LT12, CC14S, CE8, FH14S, FH14, and CL8‐M6P3) and purified rhCTGF‐His tag protein (C15W, Novoprotein), IGFBP protein, and TSP proteins, was evaluated using microscale thermophoresis (NanoTemper, Germany). Additionally, the interaction between CL8‐M6P3 and the CCN1, CCN3, and CCN4 proteins was measured using the Dianthus system (NanoTemper, Germany). Prior to measurements, the purified proteins were labeled with fluorescent dye Monolith RED‐NHS (MO‐L011, NanoTemper). For the MST assay, 2 × 10^−6 M proteins (10 µL) were added with variable concentrations of the above peptides in PBST buffer (10 µL, PBS containing 0.05% Tween‐20). After a short incubation, the mixture was loaded into the Monolith NT.115 capillary (MO‐K022, NanoTemper) and analyzed using the Monolith NT.115 (NanoTemper, Germany).

[2] = test system: red blood cells; assay: Hemolysis assay; type: cell-based, mice; conditions: mouse erythrocytes, 0-30 × 10^−6 M, 1 h, 37 °C, absorbance 570 nm
Protocol: The hemolytic activities of CL8, CL8‐M6P3, and NanoCLY were determined by monitoring hemoglobin release from red blood cells. Fresh erythrocytes were obtained from the whole blood of mice by centrifugation (1000 × g for 30 min at 4 °C), and washed three times with cold 0.9% NaCl. The erythrocytes were dispensed into 96‐well plates, incubated with CL8, CL8‐M6P3 and NanoCLY at specified concentrations (0, 0.3, 1, 3, 10, and 30 × 10^−6 M) for 1 h at 37 °C, centrifuged at 1000 × g for 10 min, the supernatant samples were collected, and the absorbance at 570 nm was measured by microplate reader Cytation 5 (Biotek, USA). The negative control group was defined as the absorbance obtained in 1× PBS (A PBS), and 100% hemolysis in 0.1%Triton X‐100 (v/v) (A Triton). The hemolysis percentage was calculated as: (A peptide − A PBS)/(ATriton − A PBS) × 100%.

[3] = biological target: T2, CCN4 (Homo sapiens, UniProt O95388); assay: Binding to CCN4 (Dianthus system); conditions: Figure S7a
T2 sequence (O95388 23-367): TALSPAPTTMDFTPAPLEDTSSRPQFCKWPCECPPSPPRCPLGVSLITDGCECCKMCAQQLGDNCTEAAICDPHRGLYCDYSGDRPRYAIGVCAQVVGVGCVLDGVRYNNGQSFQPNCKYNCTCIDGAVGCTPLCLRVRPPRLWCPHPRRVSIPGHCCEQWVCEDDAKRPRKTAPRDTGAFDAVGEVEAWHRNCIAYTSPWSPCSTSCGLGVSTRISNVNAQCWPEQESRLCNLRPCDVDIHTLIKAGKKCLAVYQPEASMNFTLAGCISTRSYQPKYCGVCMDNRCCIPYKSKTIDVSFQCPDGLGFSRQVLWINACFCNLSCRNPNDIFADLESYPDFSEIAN
Protocol: as §1

[4] = biological target: T3, CCN3 (Homo sapiens, UniProt P48745); assay: Binding to CCN3 (Dianthus system); conditions: Figure S7a
T3 sequence (P48745 32-357): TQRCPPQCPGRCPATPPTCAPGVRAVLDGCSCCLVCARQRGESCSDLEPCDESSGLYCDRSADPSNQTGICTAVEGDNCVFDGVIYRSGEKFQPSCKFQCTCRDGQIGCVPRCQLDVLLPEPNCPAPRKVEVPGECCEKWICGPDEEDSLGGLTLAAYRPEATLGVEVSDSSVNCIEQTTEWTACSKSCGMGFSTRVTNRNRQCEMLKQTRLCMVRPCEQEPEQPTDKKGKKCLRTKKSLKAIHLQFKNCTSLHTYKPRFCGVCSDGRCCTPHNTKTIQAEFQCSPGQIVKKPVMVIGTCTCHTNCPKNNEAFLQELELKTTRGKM
Protocol: as §1

[5] = biological target: T4, CCN1 (Homo sapiens, UniProt O00622); assay: Binding to CCN1 (Dianthus system); conditions: Figure S7a
T4 sequence (O00622 25-381): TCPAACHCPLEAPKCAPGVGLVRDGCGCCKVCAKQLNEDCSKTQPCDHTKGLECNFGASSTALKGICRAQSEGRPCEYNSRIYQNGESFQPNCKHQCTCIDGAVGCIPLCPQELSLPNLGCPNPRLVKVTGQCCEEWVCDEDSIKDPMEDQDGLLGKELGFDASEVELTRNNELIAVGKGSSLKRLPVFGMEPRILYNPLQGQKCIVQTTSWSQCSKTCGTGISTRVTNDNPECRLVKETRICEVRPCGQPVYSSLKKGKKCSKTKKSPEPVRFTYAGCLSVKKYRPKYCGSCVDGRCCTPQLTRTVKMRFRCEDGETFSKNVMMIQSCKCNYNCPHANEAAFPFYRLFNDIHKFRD
Protocol: as §1

[6] = biological target: T5, CTGF (Homo sapiens, UniProt P29279); assay: ELISA of extracellular CTGF in culture media of TNBC cells; type: cell-based; conditions: in vitro, BT549 and MDA-MB-231 culture media, 12 h
T5 construct: endogenous in cells; host or cells: BT549 and MDA-MB-231 (human TNBC cell lines)
T5 sequence (P29279 27-349): T1 sequence (P29279 27-349)
Protocol: BT549 and MDA‐MB‐231 cells were treated with various concentrations of CL8‐M6P3 or NanoCLY for 12 h. Extracellular CTGF protein level in conditioned media was quantified by a human CTGF ELISA kit following the manufacturer's instructions (ab261851, Abcam and CSB‐E07875h, Cusabio). Extracellular CCN1, CCN3, and CCN4 protein levels were quantified using respective ELISA kits (HY‐P7842, HY‐P701327, HY‐P78051, MCE) following the manufacturer's instructions (CSB‐EL015956HU, CSB‐EL026119HU, CSB‐E13884h, Cusabio). Additionally, BSP and β‐CTx levels in serum were quantified by ELISA kit following the manufacturer's instructions (BPE10823, BPE10438, lengton).

[7] = biological target: IGFBP protein (N-terminal domain of CTGF) (Homo sapiens, UniProt P29279); assay: MST binding to IGFBP domain of CTGF; conditions: Figure S6b
Protocol: as §1

[8] = biological target: T6, TSP proteins (C-terminal domain of CTGF) (Homo sapiens, UniProt P29279); assay: MST binding to TSP domain of CTGF; conditions: Figure S6c
T6 sequence (P29279 198-243 limits assumed): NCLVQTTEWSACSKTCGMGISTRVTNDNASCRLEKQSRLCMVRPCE
Protocol: as §1

[9] = biological target: T7, recombinant human CTGF‐His tag (connective tissue growth factor) (human), P29279; assay: MST; proteins labeled with Monolith RED-NHS; 2 × 10^-6 M protein (10 µL) mixed with variable concentrations of peptide in PBST (10 µL, PBS with 0.05% Tween-20); Monolith NT.115
T7 chain: T1 sequence (P29279 27-349)

[10] = biological target: T8, recombinant human CTGF‐His tag (connective tissue growth factor) (human, UniProt P29279 27-349, labeled with fluorescent dye Monolith RED‐NHS); assay: as above; conditions: both partners purified
T8 construct: connective tissue growth factor (CTGF/CCN2), human, recombinant; also called CCN2; rhCTGF‐His tag protein; source: bought: Novoprotein (C15W), purified
T8 sequence (looked up): T1 sequence (P29279 27-349)

Molecule: CC(C)C[C@H](NC(=O)[C@H](Cc1ccc(O)cc1)NC(=O)[C@H](Cc1c[nH]cn1)NC(=O)[C@H](C)NC(=O)[C@H](C)NC(=O)[C@H](CO)NC(=O)[C@@H]1CCCN1C(=O)[C@@H](N)CS)C(N)=O [CL8, reference compound] (H-CPSAAHYL-NH2)
- Kd [1]: 1.23 µM
- hemolysis safety [2]: good hemolysis safety

Molecule: H-CPSAAHYL-PEG3-[Pra(M6P)βAla]3-NH2 [CL8‐M6P3, peptide-based CTGF-LYTAC: CL8 conjugated to glycopeptide scaffold M6P3 by a PEG3 linker]
- binding interaction with CCN4 [3]: no binding interactions
- binding interaction with CCN3 [4]: no binding interactions
- binding interaction with CCN1 [5]: no binding interactions
- extracellular CTGF degraded [6]: ≈ 50%
- interaction with IGFBP domain of CTGF [7]: interacts
- hemolysis safety [2]: good hemolysis safety
- interaction with TSP domain of CTGF [8]: interacts

B1: CL8 peptide (peptide)
chain: CPSAAHYL
modifications: not checked
- Kd [9]: 1.23 µM

B2: CL8‐M6P3 (peptide)
chain: CPSAAHYL
modifications: not fully specified (C-terminus)
- Kd [10]: 13.4 µM
